Consider 17 compounds from patent US20250313535A1, “ALPHA 4 BETA 7 INTEGRIN MODULATORS AND USES THEREOF” (DICE MOLECULES SV, INC., priority 2022, published 2025).

Each structure is given as a SMILES string.

Assay [1] has as its target α4β7 integrin (Homo sapiens (Human), UniProt P13612+P26010). The assay is described as follows: Integrin Adhesion Assay: Protocol 4 (MAdCAM-coated plate, RPMI-8866 cells with stable LOF mutation of the ITGB1 gene). The conditions noted are these: Protocol 4; RPMI-8866 cells with LOF mutation of ITGB1, MAdCAM; read-out: Mean IC50 α4β7 KO. Format: cell-based. An outline of the steps:
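RPMI-8866 cells with CRISPR/Cas9 knockout of ITGB1 (2×10^6/mL) were added to MAdCAM-coated wells with compound (1% DMSO) in HEPES/NaCl buffer with 1 mM MnCl2, 0.1 mM CaCl2 and 1% BSA, then incubated 1 h at 37 °C. After four washes, adherent cells were quantified by CellTiter-Glo luminescence. Percent inhibition versus DMSO and control compound was fitted to 4-parameter curves.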

Assay [2] concerns the target α4β1 integrin (Homo sapiens (Human), UniProt P05556+P13612). As to the kind of experiment: Integrin Adhesion Assay: Protocol 5 (VCAM-coated plate, RPMI-8866 cells with stable LOF mutation of the ITGB7 gene). In kind it is cell-based. The note with it: Protocol 5; RPMI-8866 cells with LOF mutation of ITGB7, VCAM; read-out: Mean IC50 α4β1 KO. An outline of the steps:
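RPMI-8866 B cells with CRISPR/Cas9 ITGB7 knockout (clonal, verified by flow cytometry) adhered to VCAM-coated wells for 1 h at 37° C in HEPES/NaCl buffer with 1 mM MnCl2, 0.1 mM CaCl2, 1% BSA, 1% DMSO. Bound cells quantified by CellTiter-Glo luminescence after washing; % inhibition versus DMSO and control, 4-parameter fit.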

Chain of α4β1 integrin (P13612 34-1032): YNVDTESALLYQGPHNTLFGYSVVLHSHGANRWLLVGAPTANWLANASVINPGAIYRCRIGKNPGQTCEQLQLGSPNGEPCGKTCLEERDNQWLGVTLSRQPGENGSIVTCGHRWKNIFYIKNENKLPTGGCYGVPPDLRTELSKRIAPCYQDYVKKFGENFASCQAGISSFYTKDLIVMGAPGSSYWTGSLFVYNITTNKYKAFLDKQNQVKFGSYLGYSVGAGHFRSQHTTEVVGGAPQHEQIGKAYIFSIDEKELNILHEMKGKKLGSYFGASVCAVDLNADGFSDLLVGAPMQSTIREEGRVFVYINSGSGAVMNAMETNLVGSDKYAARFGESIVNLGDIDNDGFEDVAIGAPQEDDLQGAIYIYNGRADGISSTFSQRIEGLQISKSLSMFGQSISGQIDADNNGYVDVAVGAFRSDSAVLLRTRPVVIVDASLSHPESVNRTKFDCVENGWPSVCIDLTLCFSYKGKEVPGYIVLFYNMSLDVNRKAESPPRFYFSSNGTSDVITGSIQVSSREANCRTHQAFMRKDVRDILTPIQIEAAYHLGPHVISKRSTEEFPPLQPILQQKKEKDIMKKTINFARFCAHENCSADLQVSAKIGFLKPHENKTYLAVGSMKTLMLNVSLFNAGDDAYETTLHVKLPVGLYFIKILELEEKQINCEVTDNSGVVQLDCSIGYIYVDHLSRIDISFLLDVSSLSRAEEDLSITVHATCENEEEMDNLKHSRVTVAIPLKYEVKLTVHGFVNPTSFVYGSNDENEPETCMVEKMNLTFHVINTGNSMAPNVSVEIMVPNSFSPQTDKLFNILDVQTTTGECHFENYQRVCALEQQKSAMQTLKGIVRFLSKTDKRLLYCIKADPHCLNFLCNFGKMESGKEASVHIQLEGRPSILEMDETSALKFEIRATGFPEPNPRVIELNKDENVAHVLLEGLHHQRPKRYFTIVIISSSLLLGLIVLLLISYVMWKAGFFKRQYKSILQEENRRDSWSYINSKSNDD
Chain of α4β1 integrin (P05556 21-798): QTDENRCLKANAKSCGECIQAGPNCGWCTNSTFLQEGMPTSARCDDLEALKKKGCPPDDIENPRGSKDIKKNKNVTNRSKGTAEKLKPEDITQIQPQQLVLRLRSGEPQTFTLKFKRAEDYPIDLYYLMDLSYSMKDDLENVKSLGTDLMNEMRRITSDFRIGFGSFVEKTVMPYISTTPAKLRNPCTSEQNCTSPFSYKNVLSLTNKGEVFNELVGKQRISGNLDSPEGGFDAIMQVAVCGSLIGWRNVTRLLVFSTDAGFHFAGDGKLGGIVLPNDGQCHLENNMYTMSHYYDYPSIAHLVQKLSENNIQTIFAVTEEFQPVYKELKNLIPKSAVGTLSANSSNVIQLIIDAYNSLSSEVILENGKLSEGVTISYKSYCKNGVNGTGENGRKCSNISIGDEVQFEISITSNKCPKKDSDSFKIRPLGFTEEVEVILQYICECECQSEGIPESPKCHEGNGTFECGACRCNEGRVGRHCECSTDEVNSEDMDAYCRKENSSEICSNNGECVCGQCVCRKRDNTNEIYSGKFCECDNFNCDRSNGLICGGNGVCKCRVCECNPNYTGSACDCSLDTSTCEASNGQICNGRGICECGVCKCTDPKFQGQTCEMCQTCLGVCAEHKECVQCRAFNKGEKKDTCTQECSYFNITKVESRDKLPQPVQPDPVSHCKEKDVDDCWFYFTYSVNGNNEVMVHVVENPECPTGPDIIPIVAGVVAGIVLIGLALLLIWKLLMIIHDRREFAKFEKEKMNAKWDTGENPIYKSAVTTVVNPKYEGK
Chain of α4β7 integrin (P13612 34-1032): as the sequence (P13612 34-1032) above
Chain of α4β7 integrin (P26010 20-798): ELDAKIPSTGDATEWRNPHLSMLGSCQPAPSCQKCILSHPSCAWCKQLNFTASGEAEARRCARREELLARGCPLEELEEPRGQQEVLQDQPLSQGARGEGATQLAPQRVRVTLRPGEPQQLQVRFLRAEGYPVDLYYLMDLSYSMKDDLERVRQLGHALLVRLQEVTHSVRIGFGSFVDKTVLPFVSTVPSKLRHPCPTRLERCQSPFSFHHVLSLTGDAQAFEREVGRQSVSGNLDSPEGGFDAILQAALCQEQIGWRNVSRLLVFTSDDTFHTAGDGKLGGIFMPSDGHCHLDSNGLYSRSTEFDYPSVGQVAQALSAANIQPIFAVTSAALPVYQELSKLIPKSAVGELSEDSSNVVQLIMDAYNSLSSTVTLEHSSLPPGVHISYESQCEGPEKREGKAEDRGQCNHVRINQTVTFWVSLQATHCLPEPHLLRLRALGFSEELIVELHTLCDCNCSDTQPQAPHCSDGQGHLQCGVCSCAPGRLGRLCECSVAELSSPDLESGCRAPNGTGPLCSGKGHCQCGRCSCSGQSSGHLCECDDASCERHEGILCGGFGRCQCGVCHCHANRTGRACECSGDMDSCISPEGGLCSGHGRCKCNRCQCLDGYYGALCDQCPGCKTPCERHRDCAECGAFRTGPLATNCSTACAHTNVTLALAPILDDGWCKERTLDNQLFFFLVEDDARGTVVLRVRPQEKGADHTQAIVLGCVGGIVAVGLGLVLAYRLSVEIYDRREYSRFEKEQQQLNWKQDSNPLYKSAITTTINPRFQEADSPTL

As to `COc1ccc(CN2CCCC2)c(OC)c1-c1cccc2c(C[C@H](NC(=O)C3(C(F)(F)F)CCN(CC(F)(F)F)CC3)C(=O)O)cccc12` [Compound 782], the IC50 (usually the midpoint of a concentration-inhibition curve) is less than 10 nM in assay [1] and 100 to 1000 nM in assay [2].
For `COc1ccc(CN2CCC(F)(F)C2)c(OC)c1-c1cccc2c(C[C@H](NC(=O)C3(C(F)(F)F)CCN(CC(F)(F)F)CC3)C(=O)O)cccc12` [Compound 783], in that order: 10 to 100 nM and more than 1000 nM.
Consider `COc1ccc(CN2CCCCC2)c(OC)c1-c1cccc2c(C[C@H](NC(=O)C3(C(F)(F)F)CCN(CC(F)(F)F)CC3)C(=O)O)cccc12` [Compound 784], for which the figures for the IC50 in assay [1] and in assay [2] were less than 10 nM and 100 to 1000 nM, respectively.
`COc1ccc(CN2CCOCC2)c(OC)c1-c1cccc2c(C[C@H](NC(=O)C3(C(F)(F)F)CCN(CC(F)(F)F)CC3)C(=O)O)cccc12` [Compound 785]: the IC50 lay in the range of 10 to 100 nM in assay [1] and 100 to 1000 nM in assay [2].
With `O=C(O)[C@H](Cc1cccc2c(-c3nccc4ccc(CN5CCCCC5)cc34)cccc12)NC(=O)C1(C(F)(F)F)CCN(CC(F)(F)F)CC1` [Compound 786], the 50% inhibitory concentration (IC50) in assay [1] is 10 to 100 nM; in assay [2], more than 1000 nM.
For `O=C(O)[C@H](Cc1cccc2c(-c3ncc(CN4CCCCC4)c4ccccc34)cccc12)NC(=O)C1(C(F)(F)F)CCN(CC(F)(F)F)CC1` [Compound 787], the values for the half-inhibitory concentration (IC50) in assay [1] and in assay [2] were less than 10 nM and more than 1000 nM, respectively.
With `COc1ccc(CN2CCCC(F)C2)c(OC)c1-c1cccc2c(C[C@H](NC(=O)C3(C(F)(F)F)CCN(CC(F)(F)F)CC3)C(=O)O)cccc12` (stereo partly shown) [Compound 788], the IC50 is less than 10 nM in assay [1] and more than 1000 nM in assay [2].
For `COc1ccc(CN2CCC(C)(C)CC2)c(OC)c1-c1cccc2c(C[C@H](NC(=O)C3(C(F)(F)F)CCN(CC(F)(F)F)CC3)C(=O)O)cccc12` [Compound 789], in that order: less than 10 nM and 100 to 1000 nM.
For `COc1ccc(CN2CCCC(C)C2)c(OC)c1-c1cccc2c(C[C@H](NC(=O)C3(C(F)(F)F)CCN(CC(F)(F)F)CC3)C(=O)O)cccc12` (stereo partly shown) [Compound 790], in that order: less than 10 nM and 100 to 1000 nM.
Regarding `COc1ccc(CN2CCCC(C)(C)C2)c(OC)c1-c1cccc2c(C[C@H](NC(=O)C3(C(F)(F)F)CCN(CC(F)(F)F)CC3)C(=O)O)cccc12` [Compound 791], the IC50 in assay [1] was less than 10 nM; in assay [2] it was more than 1000 nM.
Take `COc1c(CN2CCCCC2)cc2cccnc2c1-c1cccc2c(C[C@H](NC(=O)C3(C(F)(F)F)CCN(CC(F)(F)F)CC3)C(=O)O)cccc12` [Compound 792]: the IC50 in assay [1] was 10 to 100 nM; in assay [2], more than 1000 nM.
For `O=C(O)[C@H](Cc1cccc2c(-c3ncccc3CN3CCCCC3)cccc12)NC(=O)C1(C(F)(F)F)CCN(CC(F)(F)F)CC1` [Compound 793], in that order: 10 to 100 nM and more than 1000 nM.
Consider `COc1cc(CN2CCCCC2)cc(OC)c1-c1cccc2c(C[C@H](NC(=O)C3(C(F)(F)F)CCN(CC(F)(F)F)CC3)C(=O)O)cccc12` [Compound 794], for which the IC50 in assay [1] is less than 10 nM; in assay [2] it was 100 to 1000 nM.
For `COc1cc(CN2CCC(F)(F)CC2)cc(OC)c1-c1cccc2c(C[C@H](NC(=O)C3(C(F)(F)F)CCN(CC(F)(F)F)CC3)C(=O)O)cccc12` [Compound 795], in that order: less than 10 nM and 100 to 1000 nM.
For `COc1cc(CN2CCCC2)cc(OC)c1-c1cccc2c(C[C@H](NC(=O)C3(C(F)(F)F)CCN(CC(F)(F)F)CC3)C(=O)O)cccc12` [Compound 796], the results for the IC50 in assay [1] and in assay [2] were less than 10 nM and 100 to 1000 nM, respectively.
As to `COc1cc(CN2CCC(F)(F)C2)cc(OC)c1-c1cccc2c(C[C@H](NC(=O)C3(C(F)(F)F)CCN(CC(F)(F)F)CC3)C(=O)O)cccc12` [Compound 797], the IC50 was less than 10 nM in assay [1] and more than 1000 nM in assay [2].
In the case of `COc1ccc(CN2CCCCC2)nc1-c1cccc2c(C[C@H](NC(=O)C3(C(F)(F)F)CCN(CC(F)(F)F)CC3)C(=O)O)cccc12` [Compound 798], the IC50 in assay [1] was less than 10 nM; in assay [2] it was more than 1000 nM.
